Legend:
[1] = target: T1, MEK2 (Homo sapiens, UniProt P36507); test: microscale thermophoresis, labelled recombinant MEK2; format: binding
T1 construct: gene MAP2K2

[2] = target: T2, MEK1 (Homo sapiens, UniProt Q02750); test: microscale thermophoresis, labelled recombinant human MEK1; format: binding
T2 construct: gene MAP2K1
T2 sequence (Q02750 whole entry): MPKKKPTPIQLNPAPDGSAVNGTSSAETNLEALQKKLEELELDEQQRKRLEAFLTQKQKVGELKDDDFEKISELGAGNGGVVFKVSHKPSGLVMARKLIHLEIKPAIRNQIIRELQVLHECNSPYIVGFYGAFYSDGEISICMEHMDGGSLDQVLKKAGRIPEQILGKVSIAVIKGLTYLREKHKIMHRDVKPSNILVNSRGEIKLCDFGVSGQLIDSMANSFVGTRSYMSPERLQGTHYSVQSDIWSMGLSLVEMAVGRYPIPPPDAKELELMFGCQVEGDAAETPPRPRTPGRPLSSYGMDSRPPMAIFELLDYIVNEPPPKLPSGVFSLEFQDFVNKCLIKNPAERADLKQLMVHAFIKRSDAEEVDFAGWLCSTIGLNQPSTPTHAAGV

T1 sequence (P36507 whole entry): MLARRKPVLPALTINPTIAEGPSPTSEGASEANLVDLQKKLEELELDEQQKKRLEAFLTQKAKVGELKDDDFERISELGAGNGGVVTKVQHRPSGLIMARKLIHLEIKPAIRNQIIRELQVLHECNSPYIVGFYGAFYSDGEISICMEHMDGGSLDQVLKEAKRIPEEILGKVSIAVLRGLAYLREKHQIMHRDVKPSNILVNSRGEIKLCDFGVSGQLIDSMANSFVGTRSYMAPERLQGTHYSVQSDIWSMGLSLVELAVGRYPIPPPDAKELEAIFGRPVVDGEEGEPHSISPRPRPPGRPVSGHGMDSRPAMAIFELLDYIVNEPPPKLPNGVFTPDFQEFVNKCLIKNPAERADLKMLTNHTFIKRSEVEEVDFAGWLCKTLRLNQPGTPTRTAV

`C[C@H]1O[C@@H](O[C@@H]2[C@H](O)C[C@@H](O[C@@H]3[C@H](O)C[C@@H](O[C@H]4CC[C@@]5(C)[C@@H](CC[C@H]6[C@H]5C[C@@H](O)[C@]5(C)[C@H](C7=CC(=O)OC7)CC[C@]65O)C4)O[C@@H]3C)O[C@@H]2C)C[C@H](O)[C@@H]1O` [ZINC253504760, 3-[(3S,5S,8S,9R,10S,12R,13S,14S,17S)-3-[(2S,4R,5R,6R)-5-[(2R,4R,5R,6R)-5-[(2S,4S,5S,6R)-4,5-dihydroxy-6-methyloxan-2-yl]oxy-4-hydroxy-6-methyloxan-2-yl]oxy-4-hydroxy-6-methyloxan-2-yl]oxy-12,14-dihydroxy-10,13-dimethyl-1,2,3,4,5,6,7,8,9,11,12,15,16,17-tetradecahydrocyclopenta[a]henanthrene-17-yl]-2H-furan-5-one] was tested, and the Kd [1] was 2200 nM and the Kd [2] was 500 nM.
